PubChem BioAssay (NCI)
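The compound was tested at five concentrations on cells cultured in 96-well plates, with a 48-hour exposure period. At the TGI there is no net growth.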

Legend:
Assay in all cases: inhibition of tumour cell growth, NCI panel, 48 h
KM20L2 colon = system: KM20L2 colon
RXF-631 renal = system: RXF-631 renal
NCI-H23 lung = system: NCI-H23 lung
OVCAR-5 ovarian = system: OVCAR-5 ovarian
NCI-H460 lung = system: NCI-H460 lung
M19-MEL melanoma = system: M19-MEL melanoma
UACC-62 melanoma = system: UACC-62 melanoma
OVCAR-4 ovarian = system: OVCAR-4 ovarian
DLD-1 colon = system: DLD-1 colon
RPMI-8226 leukemia = system: RPMI-8226 leukemia
MOLT-4 leukemia = system: MOLT-4 leukemia
786-0 renal = system: 786-0 renal
UO-31 renal = system: UO-31 renal
M14 melanoma = system: M14 melanoma
SF-539 CNS = system: SF-539 CNS
OVCAR-3 ovarian = system: OVCAR-3 ovarian
NCI-H226 lung = system: NCI-H226 lung
SNB-19 CNS = system: SNB-19 CNS
A549 NSCLC = system: A549 NSCLC
OVCAR-8 ovarian = system: OVCAR-8 ovarian
HOP-62 NSCLC = system: HOP-62 NSCLC
SK-MEL-28 melanoma = system: SK-MEL-28 melanoma
K-562 leukemia = system: K-562 leukemia
RXF 393 renal = system: RXF 393 renal
DMS 273 small cell lung = system: DMS 273 small cell lung
SNB-75 CNS = system: SNB-75 CNS
SF-268 CNS = system: SF-268 CNS
CAKI-1 renal = system: CAKI-1 renal
HOP-92 NSCLC = system: HOP-92 NSCLC
MALME-3M melanoma = system: MALME-3M melanoma
SNB-78 CNS = system: SNB-78 CNS
HT29 colon = system: HT29 colon
SW-620 colon = system: SW-620 colon
HCT-15 colon = system: HCT-15 colon
SN12C renal = system: SN12C renal
SR leukemia = system: SR leukemia
SF-295 CNS = system: SF-295 CNS
EKVX NSCLC = system: EKVX NSCLC
HCT-116 colon = system: HCT-116 colon
COLO 205 colon = system: COLO 205 colon
DMS 114 small cell lung = system: DMS 114 small cell lung
HCC-2998 colon = system: HCC-2998 colon
UACC-257 melanoma = system: UACC-257 melanoma
ACHN renal = system: ACHN renal
CCRF-CEM leukemia = system: CCRF-CEM leukemia
SK-MEL-2 melanoma = system: SK-MEL-2 melanoma
IGROV1 ovarian = system: IGROV1 ovarian
SK-MEL-5 melanoma = system: SK-MEL-5 melanoma
KM12 colon = system: KM12 colon
HOP-18 NSCLC = system: HOP-18 NSCLC
HL-60(TB) leukemia = system: HL-60(TB) leukemia
LXFL 529 NSCLC = system: LXFL 529 NSCLC
U251 CNS = system: U251 CNS
NCI-H522 lung = system: NCI-H522 lung
LOX IMVI melanoma = system: LOX IMVI melanoma
A498 renal = system: A498 renal
TK-10 renal = system: TK-10 renal

Measured: TGI

NCCCNCCCCN(CCCN)/[N+]([O-])=N\O
83.9 µM: SR leukemia
not listed: U251 CNS | NCI-H522 lung | LOX IMVI melanoma | A498 renal | TK-10 renal
> 100 µM: all other assays above

CCCCCCCCCCCCCP(=O)(O)OCC
not listed: RPMI-8226 leukemia | MOLT-4 leukemia | K-562 leukemia | DMS 273 small cell lung | CAKI-1 renal | SR leukemia
> 100 µM: all other assays above
